Broadly, the IC50 is the point on the concentration scale where inhibition reaches its midpoint.

Read-outs that look alike come from different tables or passages of the source.

29 molecules from patent US20090311217A1, “3-SUBSTITUTED-1H-INDOLE COMPOUNDS, THEIR USE AS MTOR KINASE AND PI3 KINASE INHIBITORS, AND THEIR SYNTHESES” (priority 2008, published 2009) can be followed below.

One experiment addresses PI3K-alpha (Homo sapiens, UniProt P42336). In words: PI3K-alpha fluorescence polarization assay. To be noted: read-out: PI3Kα Avg. IC50. It counts as biochemical.
In a further experiment the target is PI3K-gamma (Homo sapiens, UniProt P48736). In words: PI3K-gamma fluorescence polarization assay. The experiment is classed as biochemical. As for the experimental part:
PI3K-Alpha, PI3K-Beta, PI3K-Gamma, and PI3K-delta Fluorescence Polarization Assay Protocols
PI3-Kinase reactions were performed in 5 mM HEPES, pH 7, 2.5 mM MgCl2, and 25 μM ATP, with diC8-PI(4,5)P2 (Echelon, Salt Lake City Utah) as substrate. Nunc 384-well black polypropylene fluorescent plates were used for PI3K assays. Reactions were quenched by the addition of EDTA to a final concentration of 10 mM. Final reaction volumes were 10 μl. For evaluation of PI3K inhibitors, 5 ng of enzyme (PI3K-alpha, beta, gamma, or delta) and 2.5 μM of substrate was used per […] reaction volume, and inhibitor concentrations ranged from 100 μM to 20 μM; the final level of DMSO in reactions never exceeded 2%. Reactions were allowed to proceed for one hour at 25° C. After 1 hour, GST-tagged GRP1 (general receptor for phosphoinositides) PH domain fusion protein was added to a final concentration of 100 nM, and BODIPY-TMRI(1,3,4,5)P4 (Echelon) was also added to a final concentration of 5 nM. Final sample volumes were 25 μl with a final DMSO concentration of 0.8%. Assay Plates were read on Perkin-Elmer Envision plate readers with appropriate filters for Tamra [BODIPY-TMRI(1,3,4,5)P4]. Data obtained were used to calculate enzymatic activity and enzyme inhibition by inhibitor compounds.
On the technique in general: Polarisation of emitted light reports the rotation of a fluorescent probe.

Sequence of PI3K-alpha (P42336 whole entry, species assumed): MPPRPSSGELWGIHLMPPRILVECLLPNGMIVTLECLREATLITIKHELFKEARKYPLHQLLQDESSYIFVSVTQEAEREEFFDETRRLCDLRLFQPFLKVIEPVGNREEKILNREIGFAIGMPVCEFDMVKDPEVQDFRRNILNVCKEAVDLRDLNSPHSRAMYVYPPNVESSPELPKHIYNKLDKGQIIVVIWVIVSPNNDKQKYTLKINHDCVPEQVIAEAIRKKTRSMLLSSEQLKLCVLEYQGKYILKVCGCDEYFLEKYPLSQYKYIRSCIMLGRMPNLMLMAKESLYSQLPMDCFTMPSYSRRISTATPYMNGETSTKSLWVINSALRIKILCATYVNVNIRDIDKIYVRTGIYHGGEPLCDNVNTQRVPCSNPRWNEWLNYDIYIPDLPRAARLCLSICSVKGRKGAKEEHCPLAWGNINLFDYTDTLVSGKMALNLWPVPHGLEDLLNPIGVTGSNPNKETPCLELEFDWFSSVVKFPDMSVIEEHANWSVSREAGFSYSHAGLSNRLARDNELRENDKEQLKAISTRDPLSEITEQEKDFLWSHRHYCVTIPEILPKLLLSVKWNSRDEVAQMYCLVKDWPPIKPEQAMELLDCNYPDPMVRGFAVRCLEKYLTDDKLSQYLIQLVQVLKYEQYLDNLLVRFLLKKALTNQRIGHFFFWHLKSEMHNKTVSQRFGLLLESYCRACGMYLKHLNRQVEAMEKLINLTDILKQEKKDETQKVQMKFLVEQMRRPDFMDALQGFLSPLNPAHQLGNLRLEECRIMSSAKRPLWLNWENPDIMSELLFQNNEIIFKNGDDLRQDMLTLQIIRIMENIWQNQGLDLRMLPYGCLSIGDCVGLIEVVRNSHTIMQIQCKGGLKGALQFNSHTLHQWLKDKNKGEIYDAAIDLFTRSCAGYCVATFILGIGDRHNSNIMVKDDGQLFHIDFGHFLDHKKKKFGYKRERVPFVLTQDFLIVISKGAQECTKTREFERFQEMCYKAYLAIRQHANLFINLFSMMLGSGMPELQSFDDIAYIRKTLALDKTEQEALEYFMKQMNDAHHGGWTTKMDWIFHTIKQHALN
Sequence of PI3K-alpha (P27986 whole entry partner, species assumed): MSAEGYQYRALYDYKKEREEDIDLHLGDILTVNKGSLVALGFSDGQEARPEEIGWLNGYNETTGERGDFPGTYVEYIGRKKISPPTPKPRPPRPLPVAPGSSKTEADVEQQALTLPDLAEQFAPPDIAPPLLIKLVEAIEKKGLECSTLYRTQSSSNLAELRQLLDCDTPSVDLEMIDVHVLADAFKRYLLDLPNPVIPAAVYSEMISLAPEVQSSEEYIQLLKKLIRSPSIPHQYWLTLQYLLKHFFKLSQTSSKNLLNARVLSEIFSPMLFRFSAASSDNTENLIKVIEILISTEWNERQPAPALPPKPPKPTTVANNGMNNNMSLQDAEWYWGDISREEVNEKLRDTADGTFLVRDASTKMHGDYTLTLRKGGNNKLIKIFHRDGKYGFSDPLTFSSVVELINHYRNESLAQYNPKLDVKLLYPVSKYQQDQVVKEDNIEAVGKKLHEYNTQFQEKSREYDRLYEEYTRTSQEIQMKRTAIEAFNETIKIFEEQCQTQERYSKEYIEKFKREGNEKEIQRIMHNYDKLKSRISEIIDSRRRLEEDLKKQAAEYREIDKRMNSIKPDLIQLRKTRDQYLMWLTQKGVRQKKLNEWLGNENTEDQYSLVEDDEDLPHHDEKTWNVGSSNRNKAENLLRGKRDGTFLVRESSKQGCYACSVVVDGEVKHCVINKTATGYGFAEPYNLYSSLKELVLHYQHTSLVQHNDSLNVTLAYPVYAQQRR
Sequence of PI3K-gamma (P48736 whole entry, species assumed): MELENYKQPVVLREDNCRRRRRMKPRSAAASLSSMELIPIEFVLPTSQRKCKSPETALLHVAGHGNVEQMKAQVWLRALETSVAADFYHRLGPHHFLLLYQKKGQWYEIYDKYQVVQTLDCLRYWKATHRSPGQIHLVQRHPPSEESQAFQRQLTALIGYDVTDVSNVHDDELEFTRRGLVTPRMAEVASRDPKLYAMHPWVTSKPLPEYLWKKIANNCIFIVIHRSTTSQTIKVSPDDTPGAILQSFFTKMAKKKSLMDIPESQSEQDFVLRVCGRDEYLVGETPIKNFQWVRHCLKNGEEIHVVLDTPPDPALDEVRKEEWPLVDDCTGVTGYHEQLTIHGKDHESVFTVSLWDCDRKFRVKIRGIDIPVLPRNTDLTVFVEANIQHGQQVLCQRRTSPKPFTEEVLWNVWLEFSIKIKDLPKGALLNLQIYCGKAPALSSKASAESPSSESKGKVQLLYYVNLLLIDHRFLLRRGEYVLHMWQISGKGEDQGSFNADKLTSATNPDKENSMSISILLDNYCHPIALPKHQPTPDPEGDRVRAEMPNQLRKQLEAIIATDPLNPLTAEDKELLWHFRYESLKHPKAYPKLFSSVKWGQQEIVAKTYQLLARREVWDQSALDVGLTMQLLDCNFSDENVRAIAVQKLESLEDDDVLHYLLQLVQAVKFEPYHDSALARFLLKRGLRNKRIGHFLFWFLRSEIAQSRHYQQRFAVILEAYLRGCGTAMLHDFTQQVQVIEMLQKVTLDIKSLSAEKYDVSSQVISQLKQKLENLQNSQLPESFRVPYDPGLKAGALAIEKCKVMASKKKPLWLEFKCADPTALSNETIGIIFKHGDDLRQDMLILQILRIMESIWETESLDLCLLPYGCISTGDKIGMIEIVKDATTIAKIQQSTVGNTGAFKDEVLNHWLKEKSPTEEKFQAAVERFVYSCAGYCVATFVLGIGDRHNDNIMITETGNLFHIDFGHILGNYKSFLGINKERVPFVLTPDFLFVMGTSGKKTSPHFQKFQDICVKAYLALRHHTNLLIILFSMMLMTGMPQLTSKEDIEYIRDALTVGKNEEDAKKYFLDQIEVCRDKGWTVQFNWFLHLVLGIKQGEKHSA

As for “4-hydroxy-2-({5-methoxy-2-methyl-1-[2-(4-methylpiperazin-1-yl)ethyl]-1H-indol-3-yl}methylene)-1-benzofuran-3(2H)-one [Example 129]”, the concentration for half-maximal inhibition (IC50) came to 0.488 µM at PI3K-alpha and 4.5 µM on PI3K-gamma (read-out: PI3Kγ Avg. IC50).
Consider “4-hydroxy-2-[(1-{2-[4-(2-hydroxyethyl)piperazin-1-yl]ethyl}-5-methoxy-2-methyl-1H-indol-3-yl)methylene]-1-benzofuran-3(2H)-one [Example 131]”, for which the IC50 on PI3K-alpha was 0.478 µM; at PI3K-gamma (read-out: PI3Kγ Avg. IC50) it was 3.97 µM.
“4-hydroxy-2-{[5-methoxy-2-methyl-1-(2-morpholin-4-ylethyl)-1H-indol-3-yl]methylene}-1-benzofuran-3(2H)-one [Example 130]”: the IC50 at PI3K-alpha turned out to be 0.65 µM; at PI3K-gamma (read-out: PI3Kγ Avg. IC50) it was 4.13 µM.
Regarding “6,7-dihydroxy-2-({5-methoxy-2-methyl-1-[4-(4-methylpiperazin-1-yl)butyl]-1H-indol-3-yl}methylene)-1-benzofuran-3(2H)-one [Example 132]”, the results for the concentration for half-maximal inhibition (IC50) at PI3K-alpha and on PI3K-gamma (read-out: PI3Kγ Avg. IC50) were 0.337 µM and 4.15 µM, respectively.
“6,7-dihydroxy-2-[(1-{4-[4-(2-hydroxyethyl)piperazin-1-yl]butyl}-5-methoxy-2-methyl-1H-indol-3-yl)methylene]-1-benzofuran-3(2H)-one [Example 134]”: the IC50 at PI3K-alpha came out at 0.204 µM; on PI3K-gamma (read-out: PI3Kγ Avg. IC50) it was 3.17 µM.
As for “6,7-dihydroxy-2-{[5-methoxy-2-methyl-1-(4-morpholin-4-ylbutyl)-1H-indol-3-yl]methylene}-1-benzofuran-3(2H)-one [Example 133]”, the values for the IC50 on PI3K-alpha and at PI3K-gamma (read-out: PI3Kγ Avg. IC50) were 0.231 µM and 0.954 µM, respectively.
Take `Cn1cc(C=C2Oc3cc(O)cc(O)c3C2=O)c2c(-c3ccccc3)cccc21` (single isomer, unassigned) [Compound 544, (2E)-4,6-dihydroxy-2-[(1-methyl-4-phenyl-1H-indol-3-yl)methylene]-1-benzofuran-3(2H)-one-(2Z)-4,6-dihydroxy-2-[(1-methyl-4-phenyl-1H-indol-3-yl)methylene]-1-benzofuran-3(2H)-one (1:1)]: the IC50 on PI3K-alpha was determined as 0.266 µM; on PI3K-gamma (PI3Kγ Avg. IC50) it was 2.15 µM.
Regarding `CCc1cc(OC)cc2c(C=C3Oc4cc(O)cc(O)c4C3=O)cn(CCCC#N)c12` [Compound 471, 4-{3-[(4,6-dihydroxy-3-oxo-1-benzofuran-2(3H)-ylidene)methyl]-7-ethyl-5-methoxy-1H-indol-1-yl}butanenitrile], the IC50 on PI3K-alpha was 0.0625 µM; against PI3K-gamma (PI3Kγ Avg. IC50) it was 0.139 µM.
On the same counts, the results for `COc1ccc2[nH]cc(/C=C3\Oc4cc(O)cc(OC)c4C3=O)c2c1` [Compound 472, (2Z)-6-hydroxy-4-methoxy-2-[(5-methoxy-1H-indol-3-yl)methylene]-1-benzofuran-3(2H)-one] are 0.163 µM and 1.13 µM.
On the same counts, the results for `CCc1cc(OC)cc2c(/C=C3\Oc4cc(O)ccc4C3=O)cn(CCN3CCN(C)CC3)c12` [Compound 473, (2Z)-2-({7-ethyl-5-methoxy-1-[2-(4-methylpiperazin-1-yl)ethyl]-1H-indol-3-yl}methylene)-6-hydroxy-1-benzofuran-3(2H)-one] are 0.162 µM and 2.61 µM.
For the molecule `CCc1cc(OC)cc2c(/C=C3\Oc4cc(O)ccc4C3=O)cn(CCCC#N)c12` [Compound 474, 4-{7-ethyl-3-[(Z)-(6-hydroxy-3-oxo-1-benzofuran-2(3H)-ylidene)methyl]-5-methoxy-1H-indol-1-yl}butanenitrile], the IC50 on PI3K-alpha came to 0.246 µM; against PI3K-gamma (PI3Kγ Avg. IC50) it was 1.39 µM.
On the same counts, the results for `CCc1cc(OC)cc2c(/C=C3\Oc4cccc(O)c4C3=O)cn(CCCC#N)c12` [Compound 475, 4-{7-ethyl-3-[(Z)-(4-hydroxy-3-oxo-1-benzofuran-2(3H)-ylidene)methyl]-5-methoxy-1H-indol-1-yl}butanenitrile] are over 10 µM and over 10 µM.
Turning to `Cc1cccc2c1c(/C=C1\Oc3cc(O)cc(O)c3C1=O)c(-c1ccccc1)n2C` [Compound 476, (2Z)-2-[(1,4-dimethyl-2-phenyl-1H-indol-3-yl)methylene]-4,6-dihydroxy-1-benzofuran-3(2H)-one], the IC50 is 0.412 µM on PI3K-alpha and 1.64 µM against PI3K-gamma (PI3Kγ Avg. IC50).
Take `O=C1/C(=C/c2cn(CCO)c3cccc(-c4ccccc4)c23)Oc2cc(O)cc(O)c21` [Compound 478, (2Z)-4,6-dihydroxy-2-{[1-(2-hydroxyethyl)-4-phenyl-1H-indol-3-yl]methylene}-1-benzofuran-3(2H)-one]: the half-maximal inhibitory concentration (IC50) on PI3K-alpha turned out to be 1.2 µM; on PI3K-gamma (PI3Kγ Avg. IC50), 1.74 µM.
For `COc1cc(-c2ccncc2)c2[nH]cc(/C=C3\Oc4cc(O)ccc4C3=O)c2c1` [Compound 479, (2Z)-6-hydroxy-2-[(5-methoxy-7-pyridin-4-yl-1H-indol-3-yl)methylene]-1-benzofuran-3(2H)-one], the IC50 on PI3K-alpha is 0.298 µM; against PI3K-gamma (PI3Kγ Avg. IC50) it was over 10 µM.
Take `COc1cc(-c2cccnc2)c2[nH]cc(/C=C3\Oc4cc(O)ccc4C3=O)c2c1` [Compound 480, (2Z)-6-hydroxy-2-[(5-methoxy-7-pyridin-3-yl-1H-indol-3-yl)methylene]-1-benzofuran-3(2H)-one]: the IC50 came out at 0.0815 µM on PI3K-alpha and 3.51 µM against PI3K-gamma (PI3Kγ Avg. IC50).
For the molecule `COc1cccc2c1O/C(=C\c1c[nH]c3ccc(Br)cc13)C2=O` [Compound 481, (2Z)-2-[(5-bromo-1H-indol-3-yl)methylene]-7-methoxy-1-benzofuran-3(2H)-one], the IC50 at PI3K-alpha and at PI3K-gamma (PI3Kγ Avg. IC50) was over 10 µM throughout.
Take `COc1ccc2[nH]cc(C=C3Oc4c(O)cccc4C3=O)c2c1` [Compound 482, 7-hydroxy-2-[(5-methoxy-1H-indol-3-yl)methylene]-1-benzofuran-3(2H)-one]: the half-inhibitory concentration (IC50) on PI3K-alpha and at PI3K-gamma (PI3Kγ Avg. IC50) was over 10 µM each time.
In the case of `COc1ccc2[nH]cc(C=C3Oc4c(OC)cccc4C3=O)c2c1` [Compound 483, 7-methoxy-2-[(5-methoxy-1H-indol-3-yl)methylene]-1-benzofuran-3(2H)-one], the figures for the concentration for half-maximal inhibition (IC50) on PI3K-alpha and at PI3K-gamma (PI3Kγ Avg. IC50) were 9.86 µM and 5.22 µM, respectively.
Turning to `COc1ccc2[nH]cc(/C=C3\Oc4ccc(NC(=O)Nc5cccnc5)cc4C3=O)c2c1` [Compound 484, 1-{(2Z)-2-[(5-methoxy-1H-indol-3-yl)methylene]-3-oxo-2,3-dihydro-1-benzofuran-5-yl}-3-pyridin-3-ylurea], the IC50 on PI3K-alpha is 1.66 µM; on PI3K-gamma (PI3Kγ Avg. IC50) it was over 10 µM.
In the case of `COc1ccc2[nH]cc(/C=C3\Oc4ccc(NC(=O)Nc5ccccc5)cc4C3=O)c2c1` [Compound 485, 1-{(2Z)-2-[(5-methoxy-1H-indol-3-yl)methylene]-3-oxo-2,3-dihydro-1-benzofuran-5-yl}-3-phenylurea], the IC50 at PI3K-alpha and on PI3K-gamma (PI3Kγ Avg. IC50) was over 10 µM throughout.
On to `COc1ccc2[nH]cc(/C=C3\Oc4ccc(NC(=O)NC(C)C)cc4C3=O)c2c1` [Compound 486, 1-isopropyl-3-{(2Z)-2-[(5-methoxy-1H-indol-3-yl)methylene]-3-oxo-2,3-dihydro-1-benzofuran-5-yl}urea], for which the IC50 is 1.46 µM at PI3K-alpha and 1.61 µM on PI3K-gamma (PI3Kγ Avg. IC50).
In the case of `CCCCNC(=O)Nc1ccc2c(c1)C(=O)/C(=C/c1c[nH]c3ccc(OC)cc13)O2` [Compound 487, 1-butyl-3-{(2Z)-2-[(5-methoxy-1H-indol-3-yl)methylene]-3-oxo-2,3-dihydro-1-benzofuran-5-yl}urea], the IC50 on PI3K-alpha is 10.2 µM; against PI3K-gamma (PI3Kγ Avg. IC50) it was over 10 µM.
Regarding `COc1ccc2[nH]cc(/C=C3\Oc4ccc(NC(=O)NC5CCCCC5)cc4C3=O)c2c1` [Compound 488, 1-cyclohexyl-3-{(2Z)-2-[(5-methoxy-1H-indol-3-yl)methylene]-3-oxo-2,3-dihydro-1-benzofuran-5-yl}urea], the IC50 at PI3K-alpha and at PI3K-gamma (PI3Kγ Avg. IC50) was over 10 µM in each case.
As to `CCNC(=O)Nc1ccc2c(c1)C(=O)/C(=C/c1c[nH]c3ccc(OC)cc13)O2` [Compound 489, 1-ethyl-3-{(2Z)-2-[(5-methoxy-1H-indol-3-yl)methylene]-3-oxo-2,3-dihydro-1-benzofuran-5-yl}urea], the IC50 at PI3K-alpha was 6.22 µM; on PI3K-gamma (PI3Kγ Avg. IC50) it was over 10 µM.
For `COC(=O)NC(=O)Nc1ccc2c(c1)C(=O)/C(=C/c1c[nH]c3ccc(OC)cc13)O2` [Compound 490, methyl ({(2Z)-2-[(5-methoxy-1H-indol-3-yl)methylene]-3-oxo-2,3-dihydro-1-benzofuran-5-yl}carbamoyl)carbamate], the IC50 on PI3K-alpha was 0.674 µM; on PI3K-gamma (PI3Kγ Avg. IC50), over 10 µM.
As for `COc1ccc(NC(=O)Nc2ccc3c(c2)C(=O)/C(=C/c2c[nH]c4ccc(OC)cc24)O3)cc1` [Compound 491, 1-{(2Z)-2-[(5-methoxy-1H-indol-3-yl)methylene]-3-oxo-2,3-dihydro-1-benzofuran-5-yl}-3-(4-methoxyphenyl)urea], the IC50 on PI3K-alpha turned out to be 0.465 µM; at PI3K-gamma (PI3Kγ Avg. IC50), 1.31 µM.
With `Cn1cc(/C=C2\Oc3cc(O)cc(O)c3C2=O)c2ccccc21` [Example 16, (2Z)-4,6-dihydroxy-2-[(1-methyl-1H-indol-3-yl)methylene]-1-benzofuran-3(2H)-one], at PI3K-gamma (PI3Kγ Avg. IC50), the IC50 turned out to be 6.95 µM.
As to `Cc1ccc2c(c1)C(=O)C(=Cc1cn(C)c3ccccc13)S2` [Example 299, 5-methyl-2-[(1-methyl-1H-indol-3-yl)methylene]-1-benzothiophen-3(2H)-one], the IC50 at PI3K-alpha is over 10 µM.
